Test system: K98450-129-R-PDC multicell spheroids, viability
Test: Anticancer human tumor K98450-129-R-PDC patient-derived colon adenocarcinoma cell line growth inhibition [PI3K]
Conditions: for IC50: curve of first compound; for viability, T/C: stronger effect = lower value; active = viability on the fitted dose curve at most 10% of control; inactive = the rest
How it was run: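 High-throughput combination screen: PI3K inhibitors crossed with targeted small molecules on complex spheroids of tumor cells, HUVEC and MSCs at 37 degrees C, 5% CO2. Top concentration was at or near clinical Cmax (otherwise 10 microM), with half-log decrements.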
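Also: spheroids exposed to agents for seven days before read-out.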

C[C@@H](NC(=O)c1ncnc(N)c1Cl)c1ncc(C(=O)Nc2cc(C(F)(F)F)c(Cl)cn2)s1 + CC(Nc1ncnc2nc[nH]c12)c1cc2cccc(Cl)c2c(=O)n1-c1ccccc1
inactive: viability, T/C (second compound 0.0316 µM, first compound 0.0316 µM) 113% | viability, T/C (second compound 0.0316 µM, first compound 0.1 µM) 108% | viability, T/C (second compound 0.0316 µM, first compound 0.316 µM) 117% | viability, T/C (second compound 0.0316 µM, first compound 1 µM) 124% | viability, T/C (second compound 0.0316 µM, first compound 3.16 µM) 109% | viability, T/C (second compound 0.0316 µM, first compound 10 µM) 104% | viability, T/C (second compound 0.1 µM, first compound 0.0316 µM) 123% | viability, T/C (second compound 0.1 µM, first compound 0.1 µM) 106% | viability, T/C (second compound 0.1 µM, first compound 0.316 µM) 119% | viability, T/C (second compound 0.1 µM, first compound 1 µM) 108% | viability, T/C (second compound 0.1 µM, first compound 3.16 µM) 123% | viability, T/C (second compound 0.1 µM, first compound 10 µM) 96% | viability, T/C (second compound 0.316 µM, first compound 0.0316 µM) 107% | viability, T/C (second compound 0.316 µM, first compound 0.1 µM) 118% | viability, T/C (second compound 0.316 µM, first compound 0.316 µM) 103% | viability, T/C (second compound 0.316 µM, first compound 1 µM) 108% | viability, T/C (second compound 0.316 µM, first compound 3.16 µM) 126% | viability, T/C (second compound 0.316 µM, first compound 10 µM) 96.1% | viability, T/C (second compound 1 µM, first compound 0.0316 µM) 115% | viability, T/C (second compound 1 µM, first compound 0.1 µM) 106% | viability, T/C (second compound 1 µM, first compound 0.316 µM) 102% | viability, T/C (second compound 1 µM, first compound 1 µM) 106% | viability, T/C (second compound 1 µM, first compound 3.16 µM) 126% | viability, T/C (second compound 1 µM, first compound 10 µM) 86.8% | viability, T/C (second compound 3.16 µM, first compound 0.0316 µM) 92.3% | viability, T/C (second compound 3.16 µM, first compound 0.1 µM) 112% | viability, T/C (second compound 3.16 µM, first compound 0.316 µM) 95.8% | viability, T/C (second compound 3.16 µM, first compound 1 µM) 120% | viability, T/C (second compound 3.16 µM, first compound 3.16 µM) 123% | viability, T/C (second compound 3.16 µM, first compound 10 µM) 101% | viability, T/C (second compound 10 µM, first compound 0.0316 µM) 95.5% | viability, T/C (second compound 10 µM, first compound 0.1 µM) 106% | viability, T/C (second compound 10 µM, first compound 0.316 µM) 90.9% | viability, T/C (second compound 10 µM, first compound 1 µM) 103% | viability, T/C (second compound 10 µM, first compound 3.16 µM) 124% | viability, T/C (second compound 10 µM, first compound 10 µM) 78%
> 10000 nM: IC50 (second compound 0.0316 µM) | IC50 (second compound 0.1 µM) | IC50 (second compound 0.316 µM) | IC50 (second compound 1 µM) | IC50 (second compound 3.16 µM) | IC50 (second compound 10 µM)

Cn1cnc2c(F)c(Nc3ccc(Br)cc3Cl)c(C(=O)NOCCO)cc21 + CC(Nc1ccc2c(c1)OCCn1cc(N3C(=O)OCC3C(F)F)nc1-2)C(N)=O
1240 nM: IC50 (second compound 0.1 µM)
1190 nM: IC50 (second compound 0.0316 µM)
inactive: viability, T/C (second compound 0.00316 µM, first compound 0.00949 µM) 105% | viability, T/C (second compound 0.00316 µM, first compound 0.03 µM) 86.9% | viability, T/C (second compound 0.00316 µM, first compound 0.0949 µM) 95.5% | viability, T/C (second compound 0.00316 µM, first compound 0.3 µM) 76.1% | viability, T/C (second compound 0.00316 µM, first compound 0.949 µM) 62.1% | viability, T/C (second compound 0.00316 µM, first compound 3 µM) 25.7% | viability, T/C (second compound 0.01 µM, first compound 0.00949 µM) 102% | viability, T/C (second compound 0.01 µM, first compound 0.03 µM) 88.7% | viability, T/C (second compound 0.01 µM, first compound 0.0949 µM) 91% | viability, T/C (second compound 0.01 µM, first compound 0.3 µM) 75.4% | viability, T/C (second compound 0.01 µM, first compound 0.949 µM) 56.3% | viability, T/C (second compound 0.01 µM, first compound 3 µM) 21.9% | viability, T/C (second compound 0.0316 µM, first compound 0.00949 µM) 99.3% | viability, T/C (second compound 0.0316 µM, first compound 0.03 µM) 93.4% | viability, T/C (second compound 0.0316 µM, first compound 0.0949 µM) 83% | viability, T/C (second compound 0.0316 µM, first compound 0.3 µM) 75.3% | viability, T/C (second compound 0.0316 µM, first compound 0.949 µM) 62.1% | viability, T/C (second compound 0.0316 µM, first compound 3 µM) 17.7% | viability, T/C (second compound 0.1 µM, first compound 0.00949 µM) 89.5% | viability, T/C (second compound 0.1 µM, first compound 0.03 µM) 81.8% | viability, T/C (second compound 0.1 µM, first compound 0.0949 µM) 85.6% | viability, T/C (second compound 0.1 µM, first compound 0.3 µM) 76.5% | viability, T/C (second compound 0.1 µM, first compound 0.949 µM) 60.5% | viability, T/C (second compound 0.1 µM, first compound 3 µM) 16.7% | viability, T/C (second compound 0.316 µM, first compound 0.00949 µM) 83.7% | viability, T/C (second compound 0.316 µM, first compound 0.03 µM) 83.5% | viability, T/C (second compound 0.316 µM, first compound 0.0949 µM) 82.5% | viability, T/C (second compound 0.316 µM, first compound 0.3 µM) 72.2% | viability, T/C (second compound 0.316 µM, first compound 0.949 µM) 48% | viability, T/C (second compound 0.316 µM, first compound 3 µM) 11.1% | viability, T/C (second compound 1 µM, first compound 0.00949 µM) 76.6% | viability, T/C (second compound 1 µM, first compound 0.03 µM) 77.5% | viability, T/C (second compound 1 µM, first compound 0.0949 µM) 78.2% | viability, T/C (second compound 1 µM, first compound 0.3 µM) 66.8% | viability, T/C (second compound 1 µM, first compound 0.949 µM) 38.9%
active: viability, T/C (second compound 1 µM, first compound 3 µM) 9.63%
605 nM: IC50 (second compound 1 µM)
1330 nM: IC50 (second compound 0.00316 µM)
1150 nM: IC50 (second compound 0.01 µM)
857 nM: IC50 (second compound 0.316 µM)

From PubChem BioAssay AID1963961 (Molecular Pharmacology Branch, DTP, NCI, 2024)
